Literature values in patent US20150297607A1, “Tricyclic Lactams for Use in the Protection of Normal Cells During Chemotherapy” (G1 Therapeutics, Inc., priority 2014, published 2015).

Conditions: clinical trial; Grade 3/4 neutropenia and leukopenia

CC(=O)c1c(C)c2cnc(Nc3ccc(N4CCNCC4)cn3)nc2n(C2CCCC2)c1=O [PD0332991, 6-acetyl-8-cyclopentyl-5-methyl-2-(5-piperazin-1-yl-pyridin-2-ylammino)-8H-pyrido-[2,3-d]-pyrimidin-7-one]
patients requiring a dose interruption: 71%
patients requiring a dose reduction: 35%
